Test results as given in PMC6414199, “Bim escapes displacement by BH3-mimetic anti-cancer drugs by double-bolt locking both Bcl-XL and Bcl-2” (eLife, 2019).

Target: T1, Bcl-XL (Homo sapiens, UniProt Q07817)
T1 construct: gene BCL2L1; mCerulean3-Bcl-XL fusion expressed in MCF-7 cells
Test: live-cell FLIM-FRET displacement of Venus-Bad from mCer3-Bcl-XL in MCF-7 cells
Format: cell-based

T1 sequence (Q07817 whole entry, the tested form may be a part): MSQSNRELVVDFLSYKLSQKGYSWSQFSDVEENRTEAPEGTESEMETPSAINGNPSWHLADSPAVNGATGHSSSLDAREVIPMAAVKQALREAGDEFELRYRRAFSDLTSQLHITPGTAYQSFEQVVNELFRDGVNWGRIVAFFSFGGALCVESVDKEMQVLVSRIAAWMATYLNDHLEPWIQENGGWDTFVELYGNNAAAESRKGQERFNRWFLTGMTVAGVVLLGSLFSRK

CN(C)CC#Cc1ccc(OCCCc2sc(N3CCc4cccc(C(=O)Nc5nc6ccccc6s5)c4C3)nc2C(=O)O)c(F)c1 [A-1155463]
IC50: < 1250 nM
